Results: PMC8899577, “Targeting the anti-apoptotic Bcl-2 family proteins: machine learning virtual screening and biological evaluation of new small molecules” (Theranostics, 2022)

Tests used:
Mcl-1 = Mcl-1 (Homo sapiens, UniProt Q07820); assay: SPR binding to immobilized Mcl-1; settings: 25 °C, 2-site fit, highest affinity site
Method: FastStep experiments were performed with a SensiQ Pioneer apparatus. Bcl-2 immobilization on COOH5 sensorchips was carried out essentially as previously reported, [40]. All the experiments were carried out at 25 °C in degassed HEPES 20 mM, pH 7.4, NaCl 150 mM, 0.005% surfactant P20 + 2% DMSO (HBSP2%D). […] Each sensorgram is the average of at least three experiments. The decrease in Response Units (RU) after 165 s indicates analyte dissociation from the immobilized Bcl-2 upon HSBP2%D buffer injection. Control SPR experiments were carried out measuring sensorgrams on Bcl-xL and Mcl-1 (ligands) immobilized on COOH5 sensorchips as previously reported at 25 °C in degassed HBSP2%D buffer. […] Each sensorgram is the average of at least three experiments. The decrease in RU after 180 s indicates analyte dissociation from the immobilized ligands upon HSBP2%D buffer injection. Kinetic evaluation of the sensorgrams was carried out using the Qdat 4.0 program; best fittings were obtained with 2 sites and indicated in red (reported KD values refer to dissociation constants of the highest affinity site).
Figure 3 SPR analysis of the interaction between IS20 or IS21 and Bcl-xL and Mcl-1 proteins. SPR experiments were carried out measuring sensorgrams on Bcl-xL and Mcl-1 (ligands) immobilized on COOH5 sensorchips at 25 °C in degassed HBSP2%D buffer. IS20 and IS21 (analytes) were injected at a flow rate = 30 μL/min, at the following concentrations: 0.3 μM (only for Mcl-1 experiments); 1 μM; 3 μM; 10 μM; 30 μM. Each sensorgram is the average of at least three experiments. The decrease in RU (Response Units) after 180 s indicates analyte dissociation from the immobilized ligands upon HSBP2%D buffer injection. The fitted KD values for Bcl-xL are the following. IS20: 0.42 ± 0.09 μM and IS21: 0.51 ± 0.17 μM. The fitted KD values for Mcl-1are the following. IS20: 3.9 ± 0.30 μM and IS21: 1.16 ± 0.14 μM;

H1299 cells = assay: Tumor sphere formation assay, H1299; format: cell-based, Human; settings: 20 µM for 72 h, respect to controls
Method: For tumor sphere assay, cells were recovered after treatment, counted and seeded in 24-well ultralow attachment surface plates at a density of 5 × 10^2 cells/well and cultured as previously described. After 10 days, spheres were photographed and counted. The percentage of spheres normalized to the number of seeded cells was calculated.
Figure 4 Analysis of the effect of IS20 and IS21 on cell viability, clonogenic ability and tumor sphere formation in cancer cells. (A) Analysis of cell viability by MTT assay in M14, H1299, HCT116 and MDA-MB-231 cell lines treated with IS20 or IS21 (20 μM for 72 h). The results are reported as “viability of treated cells/viability of control cells (Ctrl)” × 100. (B) Representative images and quantification of clonogenic ability evaluated in M14 and H1299 cells treated with IS20 or IS21 (20 μM for 72 h). Results are reported as percentage of clonogenicity of treated versus control cells. (C) Quantification of tumor sphere formation of M14 and H1299 cells treated with IS20 or IS21 (20 μM for 72 h). Results are reported as percentage of tumor sphere formation of treated versus control. (A-C) Data are reported as mean ± SD of three independent experiments. p-values were calculated between control (Ctrl) and treated cells, ** p < 0.001 and *** p < 0.0001.

HCT116 cells = assay: Western blot of PARP1 cleavage, HCT116; format: cell-based, Human; settings: 72 h
Method: (§1) Western blot analyses of total protein extracts were performed as previously described. Immunodetection was performed using antibodies directed to poly (ADP-ribose) polymerase (PARP; BD Biosciences San Diego, CA, USA), LC3B (Cell Signaling Technology, Danvers, MA), HSP72/73 (Calbiochem, EMD Biosciences, La Jolla, CA), Bcl-2 (SC-509, Santa Cruz Biotechnology Inc, Dallas, TX, USA), Bcl-xL (SC-271121, Santa Cruz Biotechnology Inc), Mcl-1 (SC-12756, Santa Cruz Biotechnology Inc) α-tubulin (Santa Cruz Biotechnology Inc) actin (Sigma-Aldrich, St. Louis, Missouri, USA). Anti-rabbit or anti-mouse immunoglobulin G-horseradish peroxidase-conjugated antibodies (Amersham Biosciences, Freiburg, Germany) were used as secondary antibody. Images were acquired by Image Lab Software (Bio-Rad, Hercules, CA, USA), using a ChemiDoc System instrument (Bio-Rad). […]
(§2) Figure 5 Analysis of apoptosis induction by IS20 and IS21 in leukemia, melanoma and NSCLC cells. […] (G) Flow cytometric quantification of cells in the subG1 peak of cell cycle distribution by propidium iodide staining in HL60 cell line treated with IS20 or IS21 (20 μM for 24 h) and in M14, H1299 and MDA-MB-231 cell lines treated with IS20 or IS21 (20 μM for 72 h). Data are reported as mean ± SD of three independent experiments. p-values were calculated between control (Ctrl) and treated cells, * p < 0.05. […]

MDA-MB-231 cells = assay: Western blot of PARP1 cleavage, MDA-MB-231; format: cell-based, Human; settings: 72 h
Method: as §1, §2

Sequence of Mcl-1 (Q07820 whole entry): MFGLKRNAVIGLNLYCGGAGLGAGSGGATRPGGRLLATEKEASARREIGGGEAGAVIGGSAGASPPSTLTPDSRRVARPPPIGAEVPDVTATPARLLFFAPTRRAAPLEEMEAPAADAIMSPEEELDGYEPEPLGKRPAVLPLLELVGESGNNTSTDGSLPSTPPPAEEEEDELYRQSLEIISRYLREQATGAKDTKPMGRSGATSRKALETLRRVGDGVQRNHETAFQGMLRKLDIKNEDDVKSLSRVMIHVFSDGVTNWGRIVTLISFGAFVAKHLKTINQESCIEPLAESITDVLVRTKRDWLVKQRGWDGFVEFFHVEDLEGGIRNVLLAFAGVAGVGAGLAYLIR

Row | SMILES | Kd (Mcl-1) | decrease of sphere formation capacity, H1299 (H1299 cells) | PARP1 cleavage, HCT116 (HCT116 cells) | PARP1 cleavage, MDA-MB-231 (MDA-MB-231 cells)
1 | CCCCOc1ccc(C2/C(=C(\O)c3ccc4c(c3)CC(C)O4)C(=O)C(=O)N2c2nnc(SCc3ccc(Cl)cc3)s2)cc1OCC (centres unmarked) [IS20] | 3.9 ± 0.3 µM | about 60% | not evident | not evident
2 | CCCCCOc1ccc(C2/C(=C(\O)c3ccc4c(c3)CC(C)O4)C(=O)C(=O)N2c2nnc(SCc3ccc(Cl)cc3)s2)cc1OCC (centres unmarked) [IS21] | 1.16 ± 0.14 µM | about 60% | not evident | not evident
